Measurements from patent US20080177075A1, “Compositions For Progeny Gender Control” (AQ+PLC Stephen Mabbott Associates, priority 2004, published 2008).

Text: Suitable aqueous based compositions can be prepared by using an intermediate diluent such as a polyol, including glycols, preferably propylene glycol, glycerine, or sorbitol, and a wetting agent.

In the case of `Oc1cccc2cccnc12` [8-hydroxyquinoline], the “solubility in aqueous solution” value is reported as “generally insoluble or only poorly soluble”.
